Consider 2 molecules from patent US4071408A, “Neuraminidase” (Research Corporation, priority 1976, dated 1978).

Where “and” joins values, the source holds several entries; their conditions need not be identical. Equal values may be shown once.

A word on the Km: it is the concentration of substrate that gives half-maximal velocity.

This experiment has as its system Arthrobacter sialophilum neuraminidase (NANAase, E.C.3.2.1.18), purified extracellular enzyme. Description: Neuraminidase kinetics and effector tests (release of N-acetylneuraminic acid, citrate-phosphate buffer pH 6.0, 37° C.). It counts as biochemical. The method, then: Neuraminidase and related assays. The activity of enzyme preparations was determined as follows: A reaction mixture containing 40 μmols of citrate-phosphate buffer, pH 6.0, 1.0 mg of Collocalia mucoid and the enzyme fraction in a final volume of 0.50 ml was incubated at 37° C. Aliquots of 0.20 ml were withdrawn at 5 and 10 minutes, and the N-acetylneuraminic acid determined. In all experiments, zero time points were run for each extract. A unit of enzyme activity is defined as that amount which releases 1 μmol of N-acetylneuraminic acid per minute from the mucoid preparation, under conditions of the standard assay given above. Specific activity is expressed as units/mg of protein. Protein was determined with crystalline bovine serum albumin as standard. N-acetylneuraminate pyruvatelyase assays were carried out.
Enzyme characteristics. Enzyme activity increased linearly with concentration up to 0.28 mg/ml protein. The effect of pH on the activity was examined in citrate-phosphate buffer. A pH activity profile with Collocalia mucoid gave a broad optimum around 5-6. The Km values for Collocalia mucoid and N-acetylneuraminlactose were determined from the kinetic data given as inverse plots. […]

As to `O=C(O)CN(CCN(CC(=O)O)CC(=O)O)CC(=O)O` [EDTA], where the note is “EDTA between 10^-3 M and 10^-2 M, included in the assay mixture or preincubated with the enzyme for 30 min at 37° C.”, the “effect of EDTA on neuraminidase activity” value is “no effect”. As to N-acetylneuraminlactose, for the setting “apparent Km from inverse plots of kinetic data, purified enzyme, read-out: Km for N-acetylneuraminlactose”, the Km was ~3.3 mM and 3.3 mM.
